How the values were obtained:
[1] = molecular target: Serine/threonine-protein kinase pim-3 (Homo sapiens, UniProt Q86V86); experiment: (§1) Binding Assay: PIM-1, -2, and -3 enzymes were generated as fusion proteins expressed in bacteria and purified by IMAC column chromatography (Sun, X., Chiu, J. F., and He, Q. Y. (2005) Expert Rev. Proteomics, 2:649-657). A fluorescent-labeled Pim-specific peptide substrate, was custom synthesized by American Peptide Company (Sunnyvale, Calif.). Reaction Buffer contained 10 mM HEPES, pH 7.2, 10 mM MgCl2, 0.01% Tween 20, 2 mM DTT. Termination Buffer contained 190 mM HEPES, pH 7.2, 0.015% Brij-35, 0.2% Coating Reagent 3 (Caliper Life Sciences, Hopkinton, Mass.), 20 mM EDTA. Separation Buffer contained 100 mM HEPES, pH 7.2, 0.015% Brij-35, 0.1% Coating Reagent 3, 1:200 Coating Reagent 8 (Caliper Life Sciences, Hopkinton, Mass.), 10 mM EDTA and 5% DMSO.
[2] = molecular target: Serine/threonine-protein kinase pim-2 (Homo sapiens, UniProt Q9P1W9); experiment: as §1, with “A” for “Binding Assay: PIM-1, -2, and -3 enzymes were generated as fusion proteins expressed in bacteria and purified by IMAC column chromatography (Sun, X., Chiu, J. F., and He, Q. Y. (2005) Expert Rev. Proteomics, 2:649-657). A”
Chain of Serine/threonine-protein kinase pim-2 (Q9P1W9 whole entry, the tested form may be a part): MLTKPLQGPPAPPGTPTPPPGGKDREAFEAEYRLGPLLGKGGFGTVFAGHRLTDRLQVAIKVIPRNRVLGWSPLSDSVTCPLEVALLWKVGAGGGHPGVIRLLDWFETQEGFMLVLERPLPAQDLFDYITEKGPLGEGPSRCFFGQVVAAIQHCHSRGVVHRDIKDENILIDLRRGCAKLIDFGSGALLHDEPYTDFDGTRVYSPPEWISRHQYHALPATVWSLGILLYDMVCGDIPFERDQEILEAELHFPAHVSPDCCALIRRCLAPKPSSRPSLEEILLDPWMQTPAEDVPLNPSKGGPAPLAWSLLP

Ki [1]: 68.1 nM
Ki [2]: 154 nM
Compound: Cn1ncc(NC(=O)c2nc(Br)cnc2N)c1N1CCC[C@H](N)C1

Source: ChEMBL document CHEMBL3638875, “Pyrazol-4-yl-heterocyclyl-carboxamide compounds and methods of use” (2014)
